# Results taken from patent US20260327263A1, “Anti-Bacterial Peptides” (priority 2023, published 2026).
# “And” between values parts separate entries of the source, which are not always exact repeats. Equal values may be shown once. Where no end group is shown, it is not given here.
# Key:
# [1] = tested on: Pseudomonas aeruginosa (PA); assay: Live-dead staining of bacteria (membrane damage); assay type: cell-based, Pseudomonas aeruginosa (ATCC 14213)
# Procedure: FIG. 2 verifies the effects of exemplary variant peptides in disrupting bacterial membranes. To test whether exemplary peptide E1AM2 causes membrane damage in bacteria, live and dead staining of exemplary bacteria strain Pseudomonas aeruginosa (ATCC 14213, PA) are performed in the presence of different concentrations of E1AM2 peptide. […] Scale bar-3 μm. The lesser number of PA cells observed upon E1AM2 treatment at these concentrations is due to leaking of the bacteria caused by membrane disruption. Thus, peptide variants with the cationic arm show bacterial membrane disrupting ability. FIG. 2B provides a quantification of Syto-9 and PI-positive Pseudomonas aeruginosa (PA) cells 24 hours post E1AM2 treatment.
# Scale bar=3 μm. […] The percentage of PA cells with (PI-positive, red) and without (Syto-9 stained, green) membrane damage following E1AM2 V8LQ19L peptide treatment are shown.
# PA was treated with E1AM2 for 24 hours followed by live-dead saining in accordance to the manufacturers' instruction (LIVE/DEAD™ BacLight™ Bacterial Viability Kit, for microscopy & quantitative assays).
# [2] = tested on: Pseudomonas aeruginosa (PA); assay: Antimicrobial resistance evolution assay, PA; assay type: cell-based; details: for development of antimicrobial resistance, PA: serial passaging, 28 days, resistance = >4-fold MIC change
# Source text: The development of antimicrobial resistance is defined by greater than a 4-fold change to their initial minimum inhibitory concentration (MIC) at day 1. Exemplary bacteria strains Pseudomonas aeruginosa (PA) and Staphylococcus aureus (SA) are subjected to continuous daily serial passaging over several days, with treatment of exemplary variant peptides E1AM2 (SEQ ID NO: 2) and Q19L (SEQ ID NO: […]) at subinhibitory concentrations. […] The treatments were discontinued when the MIC increased by more than four-fold from the initial MIC or when MIC reached >100 μM.
# Briefly, sequential passaging of PA, and SA cells was done with sub-inhibitory concentrations of antibiotics or E1AM2 up to 4 weeks. The cells grown in those concentrations of antibiotics or peptides were diluted to A600 nm (OD600) of ~0.2 and serially passaged daily with the same concentrations at 37° C. with agitation at 24 h intervals.
# [3] = tested on: Pseudomonas aeruginosa (PA); assay: Time-kill assay, Pseudomonas aeruginosa; assay type: cell-based; details: for time to kill PA (in words): 1X MBC; for Time kill PA, >99% killing: at 1X MBC, * indicates killing within seconds
# Procedure: (§1) The bactericidal abilities of the variant peptides are not only effective, but also fast-acting. […] The killing kinetics are detailed in Table 11 below.
# (§2) Pseudomonas aeruginosa (PA) and Staphylococcus aureus (SA) strains were grown as per CLSI guidelines. AMPs were added to the bacterial cultures at their 1X MBC concentrations. Upon treatment, the bacterial cultures were enumerated for viable counts immediately within 1 min, 5 min, 15 min, 30 min and 60 min post-treatments.
# [4] = tested on: human red blood cells (hRBCs); assay: Hemolysis assay; assay type: cell-based; details: for minimum concentration corresponding to 10% hemolysis (HC) / hemolysis (in words): hRBCs; for minimum concentration corresponding to 10% hemolysis (HC): 37° C.; for hemolysis (in words): FIG. 8 up to 100 μM
# Procedure: The hemolytic score of the peptide variants and pexiganan (SEQ ID NO: 54) are compared to a strong hemolytic peptide, melittin 12 as a control. […] The minimum peptide concentration corresponding to 10% hemolysis (minimal hemolysis concentration, HC) of E1AM2=50 μM, V8LQ19L=12.5 μM, V8LQ19L C-2=3.125 μM, and pexiganan=12.5 μM respectively. Readings of the melittin at 3.125 μM were normalised to 100%.
# Examination of hemolytic activity of ultra-short peptides was performed by isolating the red blood cells (RBCs) from human blood samples by centrifugation (1000 g, 4° C., 10 min) and resuspension in 27 mL PBS. This washing step was repeated four times before the RBCs were diluted to a 10% (v/v) suspension. […] Hemolytic properties of E1AM2 and pexiganan were evaluated with melittin used as a positive control, and PBS as a negative control. The plates were incubated at 37° C., for 30 min and then centrifuged (1258 g, 4° C., 6 min). 75 μL of supernatant were transferred into a flat-bottom clear 96-well plate and the OD576 nm was read. Readings of the melittin sample at 3.125 μM were normalized to 100%.
# [5] = tested on: Staphylococcus aureus (SA); assay: Time-kill assay, Staphylococcus aureus; assay type: cell-based; details: for time to kill SA (in words): 1X MBC; for Time kill SA, >99% killing: at 1X MBC, * indicates killing within seconds
# Procedure: as §1, §2
# [6] = tested on: Staphylococcus aureus (SA); assay: Broth microdilution anti-bacterial assay (CLSI), Staphylococcus aureus; assay type: cell-based; details: SA; for MIC: overnight, 37° C., ≥99% inhibition; for MBC: ≥99% killing
Substance,"incorporation of propidium iodide (PI), membrane damage ([1]; at 1× MIC (3.125 μM) and 1X MBC (6.25 μM), 24 h)","development of antimicrobial resistance, PA [2]",time to kill PA (in words) [3],"Time kill PA, >99% killing [3]","hemolysis ([4]; at respective MIC/MBC concentrations, melittin 3.125 μM = 100%, 30 min)",minimum concentration corresponding to 10% hemolysis (HC) ([4]; 30 min),hemolysis (in words) [4],time to kill SA (in words) [5],"Time kill SA, >99% killing [5]",MIC [6],MBC [6],mechanism of bacterial killing (live/dead) ([1]; FIG. 12),"AMR prevention / resistance induction ([2]; Table 15: in PA and SA, bacteria not named)",MIC ([6]; listed as VBLQ19L),MBC ([6]; listed as VBLQ19L)
"E1AM2: untagged (E1AM2), KKLLKKWVKLSKKALKLAQSL",100%,prevented resistance acquisition,within minutes,1 min,~ 0%,50 µM,do not cause hemolysis,within minutes,1 min,6.25 µM and 6.28 µM,12.5 µM,,,,
KKLLKKWLKLSKKALKLALSL-NH2 [V8LQ19L],,effective in preventing the acquisition of AMR,within seconds,1* min,,12.5 µM,do not cause hemolysis,within seconds,1* min,1.56 µM,1.56 µM,primarily through membrane damage,Prevent AMR,1.56 µM,1.56 µM
